# How the values were obtained:
# [1] = In vivo gamma camera imaging after tail vein infusion; parameters: species or system C57BL/6 mice
# Protocol: In vivo gamma camera imaging was performed on 5-week-old male C57BL/6 mice (Hamamatsu, Shizuoka). The gamma camera images were captured and taken for 10 min using a 2 mm pinhole collimator (Infinia II, GE Healthcare, Milwaukee, Wis., USA). A 200 μl volume of 37 MBq ^99mTC-RBC-EM was infused into the tail vein of mice. As a control, the same amount of free ^99mTc was infused. During the imaging, mice were continuously anesthetized using 2.5% isoflurane (Merial, Lyon, France). The gamma camera images were obtained by capturing the gamma camera images 1 hour and 3 hours after infusing ^99mTc-RBC-EM and free ^99mTc.
# The region of interests (ROIs) in mice into which free ^99mTc was infused were the thyroid gland and the stomach, and the region of interests (ROIs) in mice into which ^99mTc-RBC-EM was infused were the thyroid gland and the liver/spleen. The right thigh part was used as a control of ROI. The average ROI count per pixel was calculated by dividing the same mice by the control ROI.
# 8505C cells = experiment: Labeling of tumor cells with ^99mTc, uptake by gamma-counter; assay type: cell-based, human; conditions: 4 μCi
# Protocol: A human atypical thyroid carcinoma 8505C cell line (Deutsche Sammlung von Mikroorganismen and Zellkulturen (DSMZ)) was cultured under a humidified atmosphere of 5% CO2 at 37° C. in Dulbecco's Modified Eagle Medium (DMEM, Invitrogen, Grand Island, N.Y., USA) supplemented with 10% fetal bovine serum (FBS), 10 U/ml penicillin, and 10 μg/ml streptomycin (Invitrogen). The 8505C cells were cultured together with ^99mTc-RBC-EM with various doses (0, 1, 2, and 4 μCi). 24 hours later, free ^99mTc-RBC-EM, which had not been absorbed in cells, were washed using PBS. Thereafter, the 8505C cells were cultured in a 20% FBS solution in a 37° C. CO2 incubator for 1, 6, 12, and 18 hours. The uptake values were measured by a gamma-counter (Cobra II, 1 Hewlett Packard, USA) at all the time points, and the amount of radiation measured was shown as a count per minute (cpm) unit. In order to compare the aforementioned results with the results of ^99mTc-RBC-EM (4 μCi), it was measured whether tumor cells were labeled with ^99mTc-RBC-EM using free ^99mTc (4 μCi).
smiles,measurement,setting,value
"[99Tc] [free ^99mTc, technetium-99m]",organs of uptake in gamma camera image,"[1]; 1 hour after injection, intravenous","strong uptake of free ^99mTc in the thyroid gland, the stomach, and the bladder"
same,uptake in regions of interest 3 hours after the infusion compared to 1 hour,"[1]; free ^99mTc: thyroid gland and stomach, ^99mTc-RBC-EM: thyroid gland, liver, spleen",significantly (P<0.001) increased
same,absorption in 8505C cells,8505C cells,rarely absorbed
same,absorption in 8505C cells as the time is increased,8505C cells,not increased

# Source: US11446402B2, “Composition for material delivery, including exosome mimetics derived from red blood cells, and use thereof” (Kyungpook National University Industry—Academic Cooperation …, priority 2018, dated 2022)
